Drawing on patent US8921397B2, “Benzofurane-piperidine compounds” (Hoffmann-La Roche Inc., priority 2011, dated 2014), this text covers Ki and melting point for 17 molecules.

One may read the Ki as the dissociation constant of the complex between target and ligand, obtained from inhibition or displacement. By melting point is commonly meant the temperature of the solid-liquid transition.

One data set has as its target human D2 receptor (Homo sapiens (Human), UniProt P14416). Nature of the data set: Radioligand binding ([3H]-spiperone) to human D2 receptor, HEK293 EBNA membranes. The conditions noted are these: HEK293 EBNA cells expressing human D2 receptor. The method, then:
(§1) HEK293 EBNA cells were transiently transfected with expression plasmids encoding for the human D2 or D3 or for the human 5-HT2A receptor, respectively. The cells were harvested 48 h post-transfection, washed three times with cold PBS and stored at −80° C. prior to use. The pellet was suspended in cold 50 mM Tris-HCl buffer containing 10 mM EDTA (pH 7.4) and was homogenized with a Polytron (Kinematica AG, Basel, Switzerland) for 20-30 sec at 12.000 rpm. After centrifugation at 48.000×g for 30 min at 4° C., the pellet was resuspended in cold 10 mM Tris-HCl buffer containing 0.1 mM EDTA (pH 7.4), homogenized, and centrifuged as above. This pellet was further resuspended in a smaller volume of ice cold 10 mM Tris-HCl buffer containing 0.1 mM EDTA (pH 7.4) and homogenized with a Polytron for 20-30 sec at 12.000 rpm. The protein content of this homogenate was determined with the Bio-Rad (Bradford) Protein Assay (Biorad Laboratories GmbH, München, Germany) according to the instructions of the manufacturer using gamma globulin as the standard. This homogenate was stored at −80° C. in aliquots and thawed immediately prior to use.
(§2) Aliquots of membrane preparations were thawed at RT, resuspended in assay buffer (D2, D3: 50 mM Tris-HCl, 120 mM NaCl, 5 mM MgCl2, 1 mM EDTA, 5 mM KCl, 1.5 mM CaCl2, pH=7.4; 5-HT2A: 50 mM Tris-HCl, 10 mM MgCl2, 1 mM EGTA, pH=7.4), homogenized with a Polytron for 20-30 sec at 12.000 rpm and adjusted to a final concentration of approximately 7.5 μg protein/well (D2, D3) and 15 μg protein/well (5-HT2A), respectively.
(§3) The binding affinity (Ki) of the compounds was determined using radioligand binding.
(§4) Membranes were incubated in a total volume of 200 μl with a fixed concentration of radioligand (final concentration approximately 0.7 nM [^3H]-spiperone for D2, 0.5 nM [^3 H]-spiperone for D3, and 1.1 nM [^3H]-ketanserin for 5-HT2A) and ten concentrations of test compound in ranging between 10 μM-0.1 nM for 1 h at RT. At the end of the incubation, the reaction mixtures were filtered on to unifilter 96-well white microplates with bonded GF/C filters (Packard BioScience, Zürich, Switzerland; preincubated for 1 h in 0.1% polyethylenimine (PEI) in assay buffer) with a Filtermate 196 harvester (Packard BioScience) and washed 3 times with cold assay buffer. The nonspecific binding was determined with equally composed reaction mixtures in the presence of 10 μM unlabelled spiperone. Per well 45 μl of Microscint 40 (Perkin Elmer, Schwerzenbach, Switzerland) was added, plates for sealed, shaken for 20 min and counted for 3 min on a Topcount Microplate Scintillation Counter (Canberra Packard SA, Zürich, Switzerland) with quenching correction.
(§5) The CPM value for each duplicate of a concentration of competing compound was averaged (y1), then the % specific binding was calculated according to the equation (((y1−non-specific)/(total binding−non-specific))×100). Graphs were plotted with the % specific binding using XLfit, a curve-fitting program that iteratively plots the data using Levenberg-Marquardt algorithm. The single site competition analysis equation used was y=A+((B−A)/(1+((x/C)D))), where y is the % specific binding, A is the minimum y, B is the maximum y, C is the IC50, x is the log 10 of the concentration of the competing compound and D is the slope of the curve (the Hill Coefficient). From these curves the IC50 (inhibition concentration at which 50% specific binding of the radioligand was displaced) and Hill coefficient were determined. The affinity constant (Ki) was calculated using the Cheng-Prusoff equation Ki=(IC50/1+([L]/Kd), where [L] is the concentration of radioligand and Kd is the dissociation constant of the radioligand at the receptor as determined by the saturation isotherm.

For a further data set, the target named is human D3 receptor (Homo sapiens (Human), UniProt P35462). Nature of the data set: Radioligand binding ([3H]-spiperone) to human D3 receptor, HEK293 EBNA membranes. The conditions noted are these: HEK293 EBNA cells expressing human D3 receptor. The method, then:
as §1, §2, §3, §4, §5

In a further data set the target is human 5-HT2A receptor (Homo sapiens (Human), UniProt P28223). Briefly: Radioligand binding ([3H]-ketanserin) to human 5-HT2A receptor, HEK293 EBNA membranes. The conditions noted are these: HEK293 EBNA cells expressing human 5-HT2A receptor. As to the method: The ability of the compounds to bind to the 5-HT2A, D3 and D2 receptors was determined using radioligand binding to cloned receptors selectively expressed in HEK-293 EBNA cells.
Chain of human 5-HT2A receptor (P28223 whole entry): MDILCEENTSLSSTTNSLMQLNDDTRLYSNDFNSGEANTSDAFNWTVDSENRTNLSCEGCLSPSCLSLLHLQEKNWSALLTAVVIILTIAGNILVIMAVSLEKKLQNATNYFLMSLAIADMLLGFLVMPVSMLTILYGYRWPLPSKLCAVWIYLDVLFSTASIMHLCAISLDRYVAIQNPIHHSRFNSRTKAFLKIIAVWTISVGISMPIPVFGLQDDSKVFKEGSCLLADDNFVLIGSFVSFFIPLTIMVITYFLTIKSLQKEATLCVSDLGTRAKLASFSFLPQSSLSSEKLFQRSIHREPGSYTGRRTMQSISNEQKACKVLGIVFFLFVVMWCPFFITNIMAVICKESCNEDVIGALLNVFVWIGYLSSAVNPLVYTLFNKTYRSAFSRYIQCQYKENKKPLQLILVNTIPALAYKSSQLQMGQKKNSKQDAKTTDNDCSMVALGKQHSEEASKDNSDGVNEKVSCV
as §1, §2, §3, §4, §5

Chain of human D3 receptor (P35462 whole entry): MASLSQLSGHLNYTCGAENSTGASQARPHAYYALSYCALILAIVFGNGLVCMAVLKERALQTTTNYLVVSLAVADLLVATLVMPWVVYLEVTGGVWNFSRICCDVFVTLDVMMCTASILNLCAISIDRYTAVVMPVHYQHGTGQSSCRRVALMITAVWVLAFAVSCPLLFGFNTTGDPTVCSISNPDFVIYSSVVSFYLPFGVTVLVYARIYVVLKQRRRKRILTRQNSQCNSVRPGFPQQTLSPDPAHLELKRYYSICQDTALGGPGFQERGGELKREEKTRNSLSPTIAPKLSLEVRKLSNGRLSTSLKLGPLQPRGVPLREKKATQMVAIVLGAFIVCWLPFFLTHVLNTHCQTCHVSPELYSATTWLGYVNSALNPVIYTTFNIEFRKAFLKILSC
Chain of human D2 receptor (P14416 whole entry): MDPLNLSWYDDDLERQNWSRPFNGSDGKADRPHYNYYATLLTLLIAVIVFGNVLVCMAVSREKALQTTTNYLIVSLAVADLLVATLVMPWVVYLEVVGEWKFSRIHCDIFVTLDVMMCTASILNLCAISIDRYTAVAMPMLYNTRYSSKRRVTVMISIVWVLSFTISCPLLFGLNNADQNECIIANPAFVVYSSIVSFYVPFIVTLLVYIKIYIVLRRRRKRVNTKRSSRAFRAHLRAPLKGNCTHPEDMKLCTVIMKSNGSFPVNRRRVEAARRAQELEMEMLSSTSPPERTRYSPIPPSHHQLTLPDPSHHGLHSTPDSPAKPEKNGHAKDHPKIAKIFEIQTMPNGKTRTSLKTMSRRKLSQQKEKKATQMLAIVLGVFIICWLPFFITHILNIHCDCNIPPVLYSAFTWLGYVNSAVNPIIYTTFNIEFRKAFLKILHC

In turn, `O=C(C[C@@H](O)C(F)(F)F)N[C@H]1CC[C@H](CCN2CCC(c3coc4ccccc34)CC2)CC1` [Example 35, trans-N-{4-[2-(4-Benzofuran-3-yl-piperidin-1-yl)-ethyl]-cyclohexyl}-(R)-4,4,4-trifluoro-3-hydroxy-butyramide] registered a melting point of 166 °C. Moreover, the Ki on human D2 receptor was 50.4 nM. For the same molecule, the Ki on human D3 receptor was found to be 2.29 nM. For the same molecule, the Ki at human 5-HT2A receptor was found to be 9.69 nM.
The matching figures for `O=C(CC1COC1)N[C@H]1CC[C@H](CCN2CCC(c3coc4ccccc34)CC2)CC1` [Example 76, trans-N-{4-[2-(4-Benzofuran-3-yl-piperidin-1-yl)-ethyl]-cyclohexyl}-2-oxetan-3-yl-acetamide]: 197 °C, 34.2 nM, 1.64 nM and 5.25 nM.
The matching figures for `O=C(N[C@H]1CC[C@H](CCN2CCC(c3coc4ccccc34)CC2)CC1)C1CCC(C(F)(F)F)CC1` (stereo partly drawn) [Example 79, 4-Trifluoromethyl-cyclohexanecarboxylic acid trans-{4-[2-(4-benzofuran-3-yl-piperidin-1-yl)-ethyl]-cyclohexyl}-amide]: 190 °C, 73 nM, 6.8 nM and 11.2 nM.
The corresponding values for `CC(C)c1ccc(C(=O)N[C@H]2CC[C@H](CCN3CCC(c4coc5ccccc45)CC3)CC2)cc1` [Example 83, trans-N-{4-[2-(4-Benzofuran-3-yl-piperidin-1-yl)-ethyl]-cyclohexyl}-4-isopropyl-benzamide] are 188 °C, 402 nM, 4.8 nM and 2.6 nM.
In turn, `CC[C@@H](O)CC(=O)N[C@H]1CC[C@H](CCN2CCC(c3coc4ccccc34)CC2)CC1` [Example 46, (R)-3-Hydroxy-pentanoic acid trans-{4-[2-(4-benzofuran-3-yl-piperidin-1-yl)-ethyl]-cyclohexyl}-amide] had a melting point of 142 °C. Besides, at human D2 receptor, the Ki turned out to be 55.4 nM. The Ki on human D3 receptor amounted to 2.49 nM. Also, the Ki at human 5-HT2A receptor worked out at 8.7 nM.
`CO[C@H]1CC[C@H](CC(=O)N[C@H]2CC[C@H](CCN3CCC(c4coc5ccccc45)CC3)CC2)CC1` [Example 72, trans-N-{4-[2-(4-Benzofuran-3-yl-piperidin-1-yl)-ethyl]-cyclohexyl}-2-trans-(4-methoxy-cyclohexyl)-acetamide] came in with a melting point of 179 °C. In addition, on human D2 receptor, the Ki came to 67.4 nM. In addition, the Ki at human D3 receptor came to 3.09 nM. Further, the Ki on human 5-HT2A receptor is 8.14 nM.
The corresponding values for `O=C(CCC(F)(F)F)N[C@H]1CC[C@H](CCN2CCC(c3coc4ccccc34)CC2)CC1` [Example 44, trans-N-{4-[2-(4-Benzofuran-3-yl-piperidin-1-yl)-ethyl]-cyclohexyl}-4,4,4-trifluoro-butyramide] are 192 °C, 61.2 nM, 2.94 nM and 15 nM.
The corresponding values for `CC(C)(O)C(=O)N[C@H]1CC[C@H](CCN2CCC(c3coc4ccccc34)CC2)CC1` [Example 16, trans-N-{4-[2-(4-Benzofuran-3-yl-piperidin-1-yl)-ethyl]-cyclohexyl}-2-hydroxy-2-methyl-propionamide] are 169 °C, 53.7 nM, 5.51 nM and 2.25 nM.
The matching figures for `O=C(N[C@H]1CC[C@H](CCN2CCC(c3coc4ccccc34)CC2)CC1)C1CC1` [Example 27, Cyclopropanecarboxylic acid trans-{4-[2-(4-benzofuran-3-yl-piperidin-1-yl)-ethyl]-cyclohexyl}-amide]: 204 °C, 22.7 nM, 2.69 nM and 4.3 nM.
`O=C(N[C@H]1CC[C@H](CCN2CCC(c3coc4ccccc34)CC2)CC1)C(O)C(F)(F)F` (mixture of isomers) [Example 32, trans-N-{4-[2-(4-Benzofuran-3-yl-piperidin-1-yl)-ethyl]-cyclohexyl}-(RS)-3,3,3-trifluoro-2-hydroxy-propionamide] came in with a melting point of 206 °C. The Ki on human D2 receptor worked out at 46.4 nM. The Ki on human D3 receptor came out at 4.02 nM. Besides, the Ki at human 5-HT2A receptor worked out at 6.08 nM.
Molecule `O=C(N[C@H]1CC[C@H](CCN2CCC(c3coc4ccccc34)CC2)CC1)C1(O)CC1` [Example 22, 1-Hydroxy-cyclopropanecarboxylic acid trans-{4-[2-(4-benzofuran-3-yl-piperidin-1-yl)-ethyl]-cyclohexyl}-amide] displayed a melting point of 200 °C. On human D2 receptor, the Ki amounted to 47.5 nM. On human D3 receptor, the Ki was found to be 1.48 nM. Moreover, the Ki on human 5-HT2A receptor is 3.05 nM.
The corresponding values for `O=C(N[C@H]1CC[C@H](CCN2CCC(c3coc4ccccc34)CC2)CC1)c1ccc(C2CC2)cc1` [Example 84, trans-N-{4-[2-(4-Benzofuran-3-yl-piperidin-1-yl)-ethyl]-cyclohexyl}-4-cyclopropyl-benzamide] are 199 °C, 355 nM, 14.1 nM and 2.15 nM.
The molecule `CCCC(=O)N[C@H]1CC[C@H](CCN2CCC(c3coc4ccccc34)CC2)CC1` [Example 33, trans-N-{4-[2-(4-Benzofuran-3-yl-piperidin-1-yl)-ethyl]-cyclohexyl}-butyramide] registered a melting point of 155 °C. The Ki on human D2 receptor is 45.3 nM. The Ki on human D3 receptor was determined as 1.71 nM. For the same molecule, the Ki on human 5-HT2A receptor was found to be 5.53 nM.
The corresponding values for `CN(C)S(=O)(=O)N[C@H]1CC[C@H](CCN2CCC(c3coc4ccccc34)CC2)CC1` [Example 43, N′-(trans-4-{2-[4-(benzofuran-3-yl)-piperidin-1-yl]-ethyl}-cyclohexyl)-N,N-dimethylsulfamide] are 229 °C, 47 nM, 3.02 nM and 4.41 nM.
Molecule `O=C(Cc1ccc2c(c1)OCO2)N[C@H]1CC[C@H](CCN2CCC(c3coc4ccccc34)CC2)CC1` [Example 74, trans-2-Benzo[1,3]dioxol-5-yl-N-{4-[2-(4-benzofuran-3-yl-piperidin-1-yl)-ethyl]-cyclohexyl}-acetamide] showed a melting point of 177 °C. In addition, the Ki at human D2 receptor was determined as 92.5 nM. At human D3 receptor, the Ki is 1.66 nM. For the same molecule, the Ki at human 5-HT2A receptor amounted to 11.5 nM.
The corresponding values for `O=C(N[C@H]1CC[C@H](CCN2CCC(c3coc4ccccc34)CC2)CC1)c1ccc(N2CCCCC2)cc1` [Example 51, trans-N-{4-[2-(4-Benzofuran-3-yl-piperidin-1-yl)-ethyl]-cyclohexyl}-4-piperidin-1-yl-benzamide] are 221 °C, 345 nM, 4.39 nM and 6.85 nM.
The matching figures for `CC(C)(C)c1ccc(C(=O)N[C@H]2CC[C@H](CCN3CCC(c4coc5ccccc45)CC3)CC2)cc1` [Example 60, trans-N-{4-[2-(4-Benzofuran-3-yl-piperidin-1-yl)-ethyl]-cyclohexyl}-4-tert-butyl-benzamide]: 180 °C, 1110 nM, 10.1 nM and 3.77 nM.
